According to the NIST ThermoML archive (doi:10.1016/j.tca.2006.01.013):

Assay: xn = mol fraction of the nth substance listed
Details: 101 kPa, Liquid, Vibrating tube method

NCCN [ethane-1,2-diamine] + O
mass density [kg/m3]
Details	323.15 K	328.15 K	333.15 K	338.15 K	343.15 K	348.15 K	353.15 K
x2 = 0.0401	872.83	868.06	863.25	858.43	853.59	848.71	843.82
x2 = 0.0797	876.97	872.2	867.42	862.6	857.77	852.91	848.01
x2 = 0.1199	881.48	876.73	871.95	867.15	862.33	857.47	852.59
x2 = 0.1598	886.3	881.56	876.8	872.01	867.2	862.35	857.48
x2 = 0.2003	891.39	886.66	881.91	877.13	872.32	867.48	862.61
x2 = 0.25	897.71	892.99	888.25	883.48	878.68	873.85	868.98
x2 = 0.2999	904.5	899.79	895.05	890.29	885.49	880.67	875.81
x2 = 0.3497	911.88	907.18	902.45	897.69	892.89	888.07	883.2
x2 = 0.3998	919.54	914.84	910.11	905.35	900.55	895.73	890.86
x2 = 0.4504	927.55	922.85	918.12	913.36	908.57	903.74	898.87
x2 = 0.5001	935.8	931.11	926.38	921.62	916.83	912	907.14
x2 = 0.5499	944.38	939.7	934.98	930.23	925.44	920.62	915.76
x2 = 0.5998	952.77	948.12	943.43	938.7	933.95	929.15	924.32
x2 = 0.6499	960.7	956.11	951.49	946.83	942.13	937.39	932.61
x2 = 0.7004	967.91	963.45	958.96	954.42	949.83	945.19	940.53
x2 = 0.7499	973.34	969.1	964.81	960.46	956.08	951.64	947.14
x2 = 0.8	976.78	972.86	968.88	964.84	960.73	956.56	952.33
x2 = 0.84	978.35	974.76	971.09	967.34	963.52	959.62	955.65
x2 = 0.88	979.3	976.06	972.74	969.32	965.81	962.21	958.53
x2 = 0.9193	980.41	977.53	974.54	971.43	968.22	964.91	961.5
x2 = 0.9599	982.91	980.35	977.65	974.83	971.88	968.82	965.65
